For assay [1], the system named is Human Papilloma Virus (HPV). The experiment in a line: Comparative tests: cervical lesions caused by HPV, 44 female patients, observation after 10 days. The format is in vivo. As to conditions: undiluted composition. As for the experimental part: The hereunder mentioned comparative tests are aimed to establish observation(s) after 10 days on 44 female human patients by Controlled Clinical Trial on Cervical Lesions (wounds) caused by the Human Papilloma Virus (HPV) which is a double stranded DNA non enveloped virus. […] In order to establish the non-activity of possible placebo's to be used in the clinical trial, 44 HPV infected patients were treated with a one-time dose of Placebos compositions.

Assay [2] concerns ES strain of lymphomatosis virus. Particulars: US 3,429,971 table 2; cited from earlier work.
The test system of assay [3] is human DNA viruses (HSV, ADV) and RNA viruses (CVB1, EV71). As to conditions: each component used alone; cited from earlier work.
For assay [4], the system named is adenovirus type 6. As to conditions: in vitro; cited from earlier work.

The text below walks through data of patent publication US8883859B1, “Viral inhibitor compositions for in vivo therapeutic use comprising a combination of (-) -carvone, geraniol and a further essential oil component” (Cesa Alliance S.A., priority 2010, dated 2014).

Turning to `C=C(C)[C@H](CO)CC=C(C)C` [Placebo 21, Lavendulol], in assay [1], the “Observation(s) after 10 days: regression of lesions on the surface of the cervix” value (shortened to “Observation(s) after 10 days: regression”) is recorded as “No regression of lesions”.
In the case of `CC(C)=CCC/C(C)=C/CO` [Trans-2,6-dimethyl-2,6,octadiene-8-ol, (2E)-3,7-dimethylocta-2,6-dien-1-ol], in assay [2], the No. cures is listed as 0.
In the case of `CC(C)=CCC/C(C)=C/CO` [geraniol], in assay [3], the antiviral activity result is on record as “No activity”.
As to (R)-Carvone + (S)-Carvone [Placebo 3], in assay [1], the “Observation(s) after 10 days: regression” value is on record as “No regression of lesions”.
Take `C=C(C)C1CC=C(C)C(=O)C1` (stereo not shown) [carvone]: in assay [4], the “antiviral activity against adenovirus type 6” value was “antiviral activity”. Besides, the antiviral activity entry in assay [3] is “No activity”.
Turning to `CC12CCC(CC1)C(C)(C)O2` [cineole], in assay [3], the antiviral activity result is listed as “No activity”.
Regarding `CC(C)=CCCC(C)=CCCC(C)=CCO` [farnesol], the antiviral activity entry in assay [3] is “No activity”.
Consider `CC12CCC(C1)C(C)(C)C2=O` (stereo not shown) [fenchone], for which the antiviral activity result in assay [3] is “No activity”.
For `C=C1CC/C=C(\C)CC[C@@H]2[C@@H]1CC2(C)C` [beta-caryophylene], the antiviral activity result in assay [3] is “No activity”.
In the case of `C=CC(=C)CCC=C(C)C` [beta-myrcene], the antiviral activity result in assay [3] is “No activity”.
With `CC(C)[C@]12CC(=O)[C@H](C)[C@H]1C2` [alpha-thujone], in assay [3], the antiviral activity result is recorded as “No activity”.
Regarding “(cis+trans)-1,2-(+)-Limonene oxide [Placebo 18]”, the “Observation(s) after 10 days: regression” value in assay [1] is recorded as “No regression of lesions”.
